Patent US8158657B2, “Heterocycles substituted pyridine derivatives and antifungal agent containing thereof” (Eisai R&D Management Co., Ltd., priority 2005, dated 2012)
Values after ≈ are worked out from the molar mass of the structure shown.

system: A. fumigatus Tsukuba strain; experiment: Anti-Aspergillus activity, MIC measurement; assay type: cell-based; settings: RPMI1640, 42-48 hours at 35° C., visual inspection, read-out: Anti-Aspergillus Activity (minimum inhibitory concentration, MIC)
Procedure, shortened: (§1)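 C. albicans CAF2-1 was grown 48 h at 30° C. in SDB and diluted in RPMI1640 to 1.2×10^3 cells/mL. Frozen A. fumigatus Tsukuba was diluted to 4.5×10^3 cells/mL. Compounds, two-fold serially diluted in DMSO from 2.5 mg/mL, were cultured aerobically with fungi for 42-48 h at 35° C.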

Structure (SMILES) | MIC [µg/mL]
Nc1ncccc1-c1cc(Cc2ccc(OCc3ccccc3)cc2)no1 [Example 1, 3-(3-(4-Benzyloxy-benzyl)-isoxazol-5-yl)-pyridin-2-ylamine] | 0.2 (≈ 0.56 µM)
Nc1ccc(-c2cc(Cc3ccc(CNc4ccccc4)cc3)no2)c(N)n1 [Example 133, 3-(3-(4-Phenylaminomethyl-benzyl)-isoxazol-5-yl)-pyridin-2,6-diamine] | 0.39 (≈ 1.05 µM)
Nc1ccc(-c2cc(Cc3ccc(OCc4ccc(F)cn4)cc3)no2)c(N)n1 [Example 112, 3-(3-(4-(5-Fluoro-pyridin-2-ylmethoxy)-benzyl)-isoxazol-5-yl)-pyridin-2,6-diamine] | 0.39 (≈ 0.996 µM)
CCCCOCc1ccc(Cn2cc(-c3cccnc3N)cn2)cc1 [Example 33, 3-(1-(4-Butoxymethyl-benzyl)-1H-pyrazol-4-yl)-pyridin-2-ylamine] | 0.78 (≈ 2.32 µM)
COCc1ccc(-c2cc(Cc3ccc(OCc4ccccn4)cc3)no2)c(N)n1 [Example 166, 6-Methoxymethyl-3-(3-(4-(pyridin-2-ylmethoxy)-benzyl)-isoxazol-5-yl)pyridin-2-ylamine] | 0.78 (≈ 1.94 µM)
Cc1ccc(Cc2ccc(Cc3cc(-c4ccc(N)nc4N)on3)cc2)o1 [Example 105, 3-(3-(4-(5-Methyl-furan-2-ylmethyl)-benzyl)-isoxazol-5-yl)-pyridin-2,6-diamine] | 0.2 (≈ 0.555 µM)
Cc1ccnc(OCc2ccc(Cc3cc(-c4cccnc4N)on3)cc2)c1 [Example 43, 3-(3-(4-(4-Methyl-pyridin-2-yloxymethyl)-benzyl)-isoxazol-5-yl)-pyridin-2-ylamine] | 0.39 (≈ 1.05 µM)
Nc1ncccc1-c1cc(Cc2ccc(Cc3ccc(Cl)o3)cc2)no1 [Example 62, 3-(3-(4-(5-Chloro-furan-2-ylmethyl)-benzyl)-isoxazol-5-yl)-pyridin-2-ylamine] | 0.2 (≈ 0.547 µM)
Cc1ccnc(OCc2ccc(Cc3cc(-c4ccc(N)nc4N)on3)cc2)c1 [Example 102, 3-(3-(4-(4-Methyl-pyridin-2-yloxymethyl)-benzyl)-isoxazol-5-yl)-pyridin-2,6-diamine] | 0.39 (≈ 1.01 µM)
COCc1ccc(-c2cc(Cc3ccc(COc4ccccn4)cc3)no2)c(N)n1 [Example 27] | 0.39 (≈ 0.969 µM)
Nc1ncccc1-c1cnn(Cc2ccc(OCc3ccccn3)cc2)c1 [Example 192, 3-(1-(4-(Pyridin-2-ylmethoxy)-benzyl)-1H-pyrazol-4-yl)-pyridin-2-ylamine] | 1.56 (≈ 4.36 µM)

system: C. albicans CAF2-1 strain; experiment: Anti-Candida activity, MIC measurement; assay type: cell-based; settings: CAF21STRAIN, C. albicans CAF2-1, RPMI1640, 42-48 hours at 35° C., visual inspection, read-out: Anti-Candida Activity (minimum inhibitory concentration, MIC)
Procedure, shortened: as §1

Structure (SMILES) | MIC [µg/mL]
Nc1ncccc1-c1cc(Cc2ccc(OCc3ccccc3)cc2)no1 [Example 1, 3-(3-(4-Benzyloxy-benzyl)-isoxazol-5-yl)-pyridin-2-ylamine] | 0.2 (≈ 0.56 µM)
Nc1ccc(-c2cc(Cc3ccc(CNc4ccccc4)cc3)no2)c(N)n1 [Example 133, 3-(3-(4-Phenylaminomethyl-benzyl)-isoxazol-5-yl)-pyridin-2,6-diamine] | 0.2 (≈ 0.538 µM)
Nc1ccc(-c2cc(Cc3ccc(OCc4ccc(F)cn4)cc3)no2)c(N)n1 [Example 112, 3-(3-(4-(5-Fluoro-pyridin-2-ylmethoxy)-benzyl)-isoxazol-5-yl)-pyridin-2,6-diamine] | 0.78 (≈ 1.99 µM)
CCCCOCc1ccc(Cn2cc(-c3cccnc3N)cn2)cc1 [Example 33, 3-(1-(4-Butoxymethyl-benzyl)-1H-pyrazol-4-yl)-pyridin-2-ylamine] | 0.39 (≈ 1.16 µM)
COCc1ccc(-c2cc(Cc3ccc(OCc4ccccn4)cc3)no2)c(N)n1 [Example 166, 6-Methoxymethyl-3-(3-(4-(pyridin-2-ylmethoxy)-benzyl)-isoxazol-5-yl)pyridin-2-ylamine] | 0.39 (≈ 0.969 µM)
Cc1ccc(Cc2ccc(Cc3cc(-c4ccc(N)nc4N)on3)cc2)o1 [Example 105, 3-(3-(4-(5-Methyl-furan-2-ylmethyl)-benzyl)-isoxazol-5-yl)-pyridin-2,6-diamine] | 0.2 (≈ 0.555 µM)
Cc1ccnc(OCc2ccc(Cc3cc(-c4cccnc4N)on3)cc2)c1 [Example 43, 3-(3-(4-(4-Methyl-pyridin-2-yloxymethyl)-benzyl)-isoxazol-5-yl)-pyridin-2-ylamine] | 0.2 (≈ 0.537 µM)
Nc1ncccc1-c1cc(Cc2ccc(Cc3ccc(Cl)o3)cc2)no1 [Example 62, 3-(3-(4-(5-Chloro-furan-2-ylmethyl)-benzyl)-isoxazol-5-yl)-pyridin-2-ylamine] | 0.2 (≈ 0.547 µM)
Cc1ccnc(OCc2ccc(Cc3cc(-c4ccc(N)nc4N)on3)cc2)c1 [Example 102, 3-(3-(4-(4-Methyl-pyridin-2-yloxymethyl)-benzyl)-isoxazol-5-yl)-pyridin-2,6-diamine] | 0.2 (≈ 0.516 µM)
COCc1ccc(-c2cc(Cc3ccc(COc4ccccn4)cc3)no2)c(N)n1 [Example 27] | 0.2 (≈ 0.497 µM)
Nc1ncccc1-c1cnn(Cc2ccc(OCc3ccccn3)cc2)c1 [Example 192, 3-(1-(4-(Pyridin-2-ylmethoxy)-benzyl)-1H-pyrazol-4-yl)-pyridin-2-ylamine] | 0.39 (≈ 1.09 µM)

system: C. albicans E81022 strain; experiment: Experimental systemic candidal infection model in mice; assay type: in vivo; settings: 2.5 mg/kg, peroral, 3 times every 4 hours, female ICR mice, observed until 14 days after infection
Protocol: A standing culture of C. albicans E81022 strain was carried out for 48 hours at 30° C. in sabouraud dextrose agar medium (SDA), the recovered fungal cells were suspended in sterilized physiological saline. By counting the fungal number on cytometry plate, the suspension was diluted to 2×10^7 cells/mL with sterilized physiological saline to serve fungal inoculum.
The fungal inoculum was used in the amounts of 0.2 mL to inoculate 4.5 to 5.5 week-old female ICR mice in the tail vein (4×10^6 cells/mouse).
From 0.5 to 1 hour after fungal inoculation, 0.2 mL of agent solution (dissolved or suspended in sterilized physiological saline containing 6.5% dimethyl sulfoxide and 3.5% Tween 80) was administered into the stomach using a peroral probe, 3 times every 4 hours. The agent concentration was 2.5 mg/kg or 10 mg/kg, and the number of animals in one group was 5 animals.
The protective effect was determined by observing life/death until 14 days after infection and calculating the mean survival days.

Structure (SMILES) | Mean Survival Days [days]
Nc1ncccc1-c1cc(Cc2ccc(OCc3ccccc3)cc2)no1 [Example 1, 3-(3-(4-Benzyloxy-benzyl)-isoxazol-5-yl)-pyridin-2-ylamine] | 12.2
Nc1ccc(-c2cc(Cc3ccc(CNc4ccccc4)cc3)no2)c(N)n1 [Example 133, 3-(3-(4-Phenylaminomethyl-benzyl)-isoxazol-5-yl)-pyridin-2,6-diamine] | 7.0
CCCCOCc1ccc(Cn2cc(-c3cccnc3N)cn2)cc1 [Example 33, 3-(1-(4-Butoxymethyl-benzyl)-1H-pyrazol-4-yl)-pyridin-2-ylamine] | 2.4
COCc1ccc(-c2cc(Cc3ccc(OCc4ccccn4)cc3)no2)c(N)n1 [Example 166, 6-Methoxymethyl-3-(3-(4-(pyridin-2-ylmethoxy)-benzyl)-isoxazol-5-yl)pyridin-2-ylamine] | 3.4
Cc1ccc(Cc2ccc(Cc3cc(-c4ccc(N)nc4N)on3)cc2)o1 [Example 105, 3-(3-(4-(5-Methyl-furan-2-ylmethyl)-benzyl)-isoxazol-5-yl)-pyridin-2,6-diamine] | 5.4
Cc1ccnc(OCc2ccc(Cc3cc(-c4cccnc4N)on3)cc2)c1 [Example 43, 3-(3-(4-(4-Methyl-pyridin-2-yloxymethyl)-benzyl)-isoxazol-5-yl)-pyridin-2-ylamine] | 10.6
Nc1ncccc1-c1cc(Cc2ccc(Cc3ccc(Cl)o3)cc2)no1 [Example 62, 3-(3-(4-(5-Chloro-furan-2-ylmethyl)-benzyl)-isoxazol-5-yl)-pyridin-2-ylamine] | 10.2
Cc1ccnc(OCc2ccc(Cc3cc(-c4ccc(N)nc4N)on3)cc2)c1 [Example 102, 3-(3-(4-(4-Methyl-pyridin-2-yloxymethyl)-benzyl)-isoxazol-5-yl)-pyridin-2,6-diamine] | 13.2
COCc1ccc(-c2cc(Cc3ccc(COc4ccccn4)cc3)no2)c(N)n1 [Example 27] | 3.0
Nc1ncccc1-c1cnn(Cc2ccc(OCc3ccccn3)cc2)c1 [Example 192, 3-(1-(4-(Pyridin-2-ylmethoxy)-benzyl)-1H-pyrazol-4-yl)-pyridin-2-ylamine] | 3.2

same assay, conditions: 10 mg/kg, peroral, 3 times every 4 hours, female ICR mice, observed until 14 days after infection

Structure (SMILES) | Mean Survival Days [days]
Nc1ncccc1-c1cc(Cc2ccc(OCc3ccccc3)cc2)no1 [Example 1, 3-(3-(4-Benzyloxy-benzyl)-isoxazol-5-yl)-pyridin-2-ylamine] | 14.0
Nc1ccc(-c2cc(Cc3ccc(CNc4ccccc4)cc3)no2)c(N)n1 [Example 133, 3-(3-(4-Phenylaminomethyl-benzyl)-isoxazol-5-yl)-pyridin-2,6-diamine] | 13.4
Nc1ccc(-c2cc(Cc3ccc(OCc4ccc(F)cn4)cc3)no2)c(N)n1 [Example 112, 3-(3-(4-(5-Fluoro-pyridin-2-ylmethoxy)-benzyl)-isoxazol-5-yl)-pyridin-2,6-diamine] | 12.2
CCCCOCc1ccc(Cn2cc(-c3cccnc3N)cn2)cc1 [Example 33, 3-(1-(4-Butoxymethyl-benzyl)-1H-pyrazol-4-yl)-pyridin-2-ylamine] | 8.4
COCc1ccc(-c2cc(Cc3ccc(OCc4ccccn4)cc3)no2)c(N)n1 [Example 166, 6-Methoxymethyl-3-(3-(4-(pyridin-2-ylmethoxy)-benzyl)-isoxazol-5-yl)pyridin-2-ylamine] | 12.4
Cc1ccc(Cc2ccc(Cc3cc(-c4ccc(N)nc4N)on3)cc2)o1 [Example 105, 3-(3-(4-(5-Methyl-furan-2-ylmethyl)-benzyl)-isoxazol-5-yl)-pyridin-2,6-diamine] | 12.8
Cc1ccnc(OCc2ccc(Cc3cc(-c4cccnc4N)on3)cc2)c1 [Example 43, 3-(3-(4-(4-Methyl-pyridin-2-yloxymethyl)-benzyl)-isoxazol-5-yl)-pyridin-2-ylamine] | 14.0
Cc1ccnc(OCc2ccc(Cc3cc(-c4ccc(N)nc4N)on3)cc2)c1 [Example 102, 3-(3-(4-(4-Methyl-pyridin-2-yloxymethyl)-benzyl)-isoxazol-5-yl)-pyridin-2,6-diamine] | 13.0
COCc1ccc(-c2cc(Cc3ccc(COc4ccccn4)cc3)no2)c(N)n1 [Example 27] | 10.0
Nc1ncccc1-c1cnn(Cc2ccc(OCc3ccccn3)cc2)c1 [Example 192, 3-(1-(4-(Pyridin-2-ylmethoxy)-benzyl)-1H-pyrazol-4-yl)-pyridin-2-ylamine] | 9.4
